# From ChEMBL document CHEMBL1201862, “PubChem BioAssay data set” (2004)
# Calls of active or inactive are those of the source.
# Experiments:
# [1] = biological target: T1, DNA repair and recombination protein RAD54-like (Homo sapiens, UniProt Q92698); assay: inhibitors of human RAD54 branch migration, confirmation, biochemical, fluorescence, cherry-picked samples, dose series (AID 651657); assay type: functional
# T1 sequence (Q92698 whole entry): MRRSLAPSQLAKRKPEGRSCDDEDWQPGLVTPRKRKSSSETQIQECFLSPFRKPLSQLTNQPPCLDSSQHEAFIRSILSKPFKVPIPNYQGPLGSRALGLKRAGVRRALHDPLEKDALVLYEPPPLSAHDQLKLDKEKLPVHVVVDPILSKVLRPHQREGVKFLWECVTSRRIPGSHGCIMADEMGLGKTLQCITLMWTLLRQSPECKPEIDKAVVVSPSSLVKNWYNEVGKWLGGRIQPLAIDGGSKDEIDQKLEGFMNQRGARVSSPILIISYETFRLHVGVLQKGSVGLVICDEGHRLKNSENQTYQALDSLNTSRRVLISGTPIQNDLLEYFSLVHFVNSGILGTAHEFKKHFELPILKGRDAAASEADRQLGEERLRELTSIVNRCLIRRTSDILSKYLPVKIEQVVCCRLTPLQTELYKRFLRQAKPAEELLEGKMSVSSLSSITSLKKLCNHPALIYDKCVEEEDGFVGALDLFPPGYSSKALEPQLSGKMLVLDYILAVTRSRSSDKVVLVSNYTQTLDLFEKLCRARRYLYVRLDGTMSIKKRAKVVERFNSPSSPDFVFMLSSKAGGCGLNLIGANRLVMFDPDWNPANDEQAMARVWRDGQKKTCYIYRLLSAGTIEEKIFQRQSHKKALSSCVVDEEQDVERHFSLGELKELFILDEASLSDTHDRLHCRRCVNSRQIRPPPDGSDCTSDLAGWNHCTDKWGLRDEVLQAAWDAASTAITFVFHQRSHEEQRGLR
# [2] = biological target: T2, Histone-lysine N-methyltransferase NSD2 (Homo sapiens, UniProt O96028); assay type: biochemical
# T2 sequence (O96028 whole entry): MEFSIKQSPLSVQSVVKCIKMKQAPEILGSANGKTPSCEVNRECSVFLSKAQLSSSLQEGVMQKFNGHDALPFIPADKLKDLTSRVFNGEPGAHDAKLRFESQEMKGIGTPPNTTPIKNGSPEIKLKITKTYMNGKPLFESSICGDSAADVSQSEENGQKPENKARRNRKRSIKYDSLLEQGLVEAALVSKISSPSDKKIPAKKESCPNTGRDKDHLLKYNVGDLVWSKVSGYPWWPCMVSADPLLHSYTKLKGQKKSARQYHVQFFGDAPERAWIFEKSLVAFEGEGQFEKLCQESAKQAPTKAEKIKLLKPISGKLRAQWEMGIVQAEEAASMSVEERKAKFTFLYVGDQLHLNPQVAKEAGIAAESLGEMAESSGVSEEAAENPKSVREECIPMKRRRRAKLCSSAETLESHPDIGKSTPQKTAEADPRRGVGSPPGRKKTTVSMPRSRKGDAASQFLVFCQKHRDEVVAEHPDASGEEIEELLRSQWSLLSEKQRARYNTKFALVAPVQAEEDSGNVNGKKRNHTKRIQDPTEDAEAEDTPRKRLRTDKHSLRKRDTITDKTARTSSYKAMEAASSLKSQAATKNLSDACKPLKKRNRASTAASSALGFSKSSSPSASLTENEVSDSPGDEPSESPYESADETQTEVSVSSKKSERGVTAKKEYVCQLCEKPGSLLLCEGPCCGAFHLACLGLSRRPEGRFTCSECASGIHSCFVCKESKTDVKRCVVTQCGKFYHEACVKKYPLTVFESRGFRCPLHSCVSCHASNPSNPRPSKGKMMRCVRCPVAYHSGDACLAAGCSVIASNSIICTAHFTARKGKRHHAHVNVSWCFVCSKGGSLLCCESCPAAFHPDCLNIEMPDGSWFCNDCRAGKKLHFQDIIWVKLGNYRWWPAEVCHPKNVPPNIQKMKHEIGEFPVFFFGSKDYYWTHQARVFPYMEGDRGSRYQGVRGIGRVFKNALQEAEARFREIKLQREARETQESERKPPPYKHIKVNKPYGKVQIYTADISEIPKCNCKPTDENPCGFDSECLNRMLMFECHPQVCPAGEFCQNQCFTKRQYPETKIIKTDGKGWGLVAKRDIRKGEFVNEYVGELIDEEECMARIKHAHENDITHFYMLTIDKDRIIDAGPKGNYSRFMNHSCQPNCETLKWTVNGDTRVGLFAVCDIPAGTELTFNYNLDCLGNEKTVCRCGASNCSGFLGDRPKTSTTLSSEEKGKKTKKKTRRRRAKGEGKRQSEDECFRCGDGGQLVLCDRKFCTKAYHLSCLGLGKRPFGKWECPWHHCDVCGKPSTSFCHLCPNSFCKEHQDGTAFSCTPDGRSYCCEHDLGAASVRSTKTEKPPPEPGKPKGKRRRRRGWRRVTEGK
# [3] = biological target: Beta-2 adrenergic receptor (Homo sapiens, UniProt P07550); assay: beta2AR agonists driving receptor internalization, dose response, cell-based, FAP fluorogen, flow cytometry, cherry pick 1 (AID 588763); assay type: functional
# Chain of Beta-2 adrenergic receptor (P07550 whole entry): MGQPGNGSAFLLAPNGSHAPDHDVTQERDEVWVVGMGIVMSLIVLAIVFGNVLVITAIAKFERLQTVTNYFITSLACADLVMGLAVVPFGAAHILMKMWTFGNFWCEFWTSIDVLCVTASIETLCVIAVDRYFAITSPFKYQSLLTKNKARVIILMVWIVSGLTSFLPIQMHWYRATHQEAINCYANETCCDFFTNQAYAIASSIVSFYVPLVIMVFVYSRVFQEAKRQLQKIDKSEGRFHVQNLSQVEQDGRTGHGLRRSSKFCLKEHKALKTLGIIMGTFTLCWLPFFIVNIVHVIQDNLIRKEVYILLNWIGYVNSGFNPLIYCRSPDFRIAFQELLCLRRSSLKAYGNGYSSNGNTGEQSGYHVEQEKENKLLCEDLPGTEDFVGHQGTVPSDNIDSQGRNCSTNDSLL
# [4] = biological target: Peroxisome proliferator-activated receptor gamma/Nuclear receptor coactivator 1 (Homo sapiens, UniProt P37231); assay: TR-FRET dose response biochemical High Throughput Screening assay for agonists of the steroid receptor coactivator 1 (SRC-1) recruitment by the peroxisome proliferator-activated receptor gamma (PPAR gamma): non-selective agonists. [Related pubchem assays (depositor defined):AID1300, AID1808, AID504735, AID631]; assay type: protein assay
# Chain of Peroxisome proliferator-activated receptor gamma/Nuclear receptor coactivator 1 (P37231 whole entry): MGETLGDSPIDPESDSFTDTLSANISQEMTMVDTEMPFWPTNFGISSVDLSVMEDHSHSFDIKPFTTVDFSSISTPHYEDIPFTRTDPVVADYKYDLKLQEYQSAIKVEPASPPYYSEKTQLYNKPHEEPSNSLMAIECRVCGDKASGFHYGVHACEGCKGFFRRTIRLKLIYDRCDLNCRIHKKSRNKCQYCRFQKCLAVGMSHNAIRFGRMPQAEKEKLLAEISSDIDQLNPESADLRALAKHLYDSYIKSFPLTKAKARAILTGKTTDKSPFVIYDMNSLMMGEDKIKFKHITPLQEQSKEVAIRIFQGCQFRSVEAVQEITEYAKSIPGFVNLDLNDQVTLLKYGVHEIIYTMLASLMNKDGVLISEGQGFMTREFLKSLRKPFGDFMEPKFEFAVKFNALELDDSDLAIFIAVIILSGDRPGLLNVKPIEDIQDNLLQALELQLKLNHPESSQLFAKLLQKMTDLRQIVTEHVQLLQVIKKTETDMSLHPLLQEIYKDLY
# Chain of Peroxisome proliferator-activated receptor gamma/Nuclear receptor coactivator 1 (Q15788 whole entry, further chain): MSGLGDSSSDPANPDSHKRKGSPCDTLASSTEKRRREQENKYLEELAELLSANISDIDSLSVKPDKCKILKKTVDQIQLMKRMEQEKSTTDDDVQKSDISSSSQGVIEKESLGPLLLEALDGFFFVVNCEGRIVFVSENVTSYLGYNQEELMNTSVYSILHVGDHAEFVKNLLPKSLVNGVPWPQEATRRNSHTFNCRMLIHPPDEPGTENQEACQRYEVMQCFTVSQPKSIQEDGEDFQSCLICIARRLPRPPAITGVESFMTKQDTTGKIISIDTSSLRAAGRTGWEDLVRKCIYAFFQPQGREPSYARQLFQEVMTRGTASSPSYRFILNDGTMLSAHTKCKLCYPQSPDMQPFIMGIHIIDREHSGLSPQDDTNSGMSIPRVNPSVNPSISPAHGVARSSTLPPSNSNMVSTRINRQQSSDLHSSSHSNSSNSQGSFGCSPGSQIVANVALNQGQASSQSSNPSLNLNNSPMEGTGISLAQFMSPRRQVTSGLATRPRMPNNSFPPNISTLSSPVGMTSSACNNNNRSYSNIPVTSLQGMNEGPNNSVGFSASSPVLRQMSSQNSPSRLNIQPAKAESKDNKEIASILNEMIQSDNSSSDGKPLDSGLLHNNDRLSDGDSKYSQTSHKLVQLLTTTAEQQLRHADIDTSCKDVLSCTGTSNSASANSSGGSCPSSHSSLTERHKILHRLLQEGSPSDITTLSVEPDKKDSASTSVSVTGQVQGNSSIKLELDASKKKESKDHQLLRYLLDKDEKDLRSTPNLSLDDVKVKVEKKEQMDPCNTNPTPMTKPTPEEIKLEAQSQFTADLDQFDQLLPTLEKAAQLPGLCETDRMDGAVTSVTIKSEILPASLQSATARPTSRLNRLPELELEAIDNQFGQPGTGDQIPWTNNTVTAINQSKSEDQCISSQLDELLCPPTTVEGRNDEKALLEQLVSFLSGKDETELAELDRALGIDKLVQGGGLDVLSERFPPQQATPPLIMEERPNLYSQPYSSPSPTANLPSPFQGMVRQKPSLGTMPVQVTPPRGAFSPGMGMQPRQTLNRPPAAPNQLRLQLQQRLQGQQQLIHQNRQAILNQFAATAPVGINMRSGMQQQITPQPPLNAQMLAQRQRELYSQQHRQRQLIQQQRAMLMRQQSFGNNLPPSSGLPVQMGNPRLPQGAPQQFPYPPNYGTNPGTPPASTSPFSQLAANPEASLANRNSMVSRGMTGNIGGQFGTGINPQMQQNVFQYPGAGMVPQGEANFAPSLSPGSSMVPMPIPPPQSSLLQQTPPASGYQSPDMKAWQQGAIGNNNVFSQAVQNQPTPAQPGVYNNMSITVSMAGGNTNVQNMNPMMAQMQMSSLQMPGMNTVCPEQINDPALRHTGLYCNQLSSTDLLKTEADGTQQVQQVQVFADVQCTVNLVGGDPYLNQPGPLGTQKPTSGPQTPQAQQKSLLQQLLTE
# [5] = biological target: Peroxisome proliferator-activated receptor gamma/Nuclear receptor coactivator 2 (Homo sapiens, UniProt P37231); assay: (§1) TR-FRET dose response biochemical High Throughput Screening assay for agonists of the steroid receptor coactivator 2 (SRC-2) recruitment by the peroxisome proliferator-activated receptor gamma (PPAR gamma): non-selective agonists. [Related pubchem assays: 1297, 1032 ]; assay type: functional
# [6] = biological target: T3, Zinc finger protein mex-5 (Caenorhabditis elegans, UniProt Q9XUB2); assay: MEX-5/TCR-2 RNA interaction inhibitors, dose response, biochemical, C. elegans, fluorescence polarization (AID 1960)
# T3 sequence (Q9XUB2 whole entry): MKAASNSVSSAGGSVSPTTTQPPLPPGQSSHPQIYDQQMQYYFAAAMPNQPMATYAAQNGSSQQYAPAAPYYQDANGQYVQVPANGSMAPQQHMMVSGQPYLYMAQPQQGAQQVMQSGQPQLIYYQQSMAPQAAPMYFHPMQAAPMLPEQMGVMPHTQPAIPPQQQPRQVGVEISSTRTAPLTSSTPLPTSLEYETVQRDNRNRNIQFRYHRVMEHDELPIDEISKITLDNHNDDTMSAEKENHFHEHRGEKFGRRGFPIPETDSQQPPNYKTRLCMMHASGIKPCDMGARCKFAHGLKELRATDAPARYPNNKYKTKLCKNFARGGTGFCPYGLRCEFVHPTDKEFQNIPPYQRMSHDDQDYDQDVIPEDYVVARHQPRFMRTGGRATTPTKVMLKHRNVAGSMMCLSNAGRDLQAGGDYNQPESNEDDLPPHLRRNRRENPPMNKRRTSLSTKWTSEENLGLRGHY
# [7] = biological target: Peroxisome proliferator-activated receptor gamma/Nuclear receptor coactivator 3 (Homo sapiens, UniProt P37231); assay: as §1, with “3 (SRC-3)” for “2 (SRC-2)”, “1301 (Confirmation screen.), 1048 (Primary screen.)]” for “1297, 1032 ]”; assay type: functional
# [8] = biological target: T4, RNA-binding protein pos-1 (Caenorhabditis elegans, UniProt G5EF15); assay: inhibitors of POS-1/mex-3 RNA binding, dose response, biochemical, fluorescence polarization (AID 1964);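 further: purified POS-1 fused to maltose binding protein made in E. coli; potency of compounds blocking POS-1 binding to fluorescent RNA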
# T4 sequence (G5EF15 whole entry): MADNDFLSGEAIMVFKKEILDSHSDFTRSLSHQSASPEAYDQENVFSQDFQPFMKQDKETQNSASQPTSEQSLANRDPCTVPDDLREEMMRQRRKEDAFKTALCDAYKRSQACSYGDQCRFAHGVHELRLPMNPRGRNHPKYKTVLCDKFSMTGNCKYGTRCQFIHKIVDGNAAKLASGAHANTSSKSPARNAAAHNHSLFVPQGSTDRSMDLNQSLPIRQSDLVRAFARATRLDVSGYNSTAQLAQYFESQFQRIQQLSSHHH
# [9] = inhibitors of clade B AD8 Env fusion, dose response, cell-based, cherry-pick (AID 652062); assay type: functional;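 further: luciferase signal from cell-cell fusion driven by HIV-1 clade B AD8 Env; potency is for inhibitors of fusion seen as a drop in luminescence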
# [10] = off-target signal loss in HeLa-CEM21 co-culture – HeLa F-luc CTL cells, cherry-picked, counter-screen for HIV-1 Env fusion inhibitor project, dose response (AID 652040); assay type: functional, cell-based;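 further: potency for signal decrease marking cytotoxic or nonspecific inhibition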
# [11] = inhibitors of HIV Env-driven cell fusion, dose response, cherry-pick (AID 652057); assay type: functional, cell-based
# [12] = ZM109 Env clade C HIV-1 fusion inhibitors, dose response, HeLa effector, CEM target cells, luciferase, cherry-pick (AID 652058); assay type: functional, cell-based
# Phospholipase D2 = Phospholipase D2 (Homo sapiens, UniProt O14939); assay: PLD2 inhibitor potency in cells, dose response (AID 602147); assay type: functional;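 further: cellular assay in HEK293 cells overexpressing GFP-tagged PLD2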
# Chain of Phospholipase D2 (O14939 whole entry): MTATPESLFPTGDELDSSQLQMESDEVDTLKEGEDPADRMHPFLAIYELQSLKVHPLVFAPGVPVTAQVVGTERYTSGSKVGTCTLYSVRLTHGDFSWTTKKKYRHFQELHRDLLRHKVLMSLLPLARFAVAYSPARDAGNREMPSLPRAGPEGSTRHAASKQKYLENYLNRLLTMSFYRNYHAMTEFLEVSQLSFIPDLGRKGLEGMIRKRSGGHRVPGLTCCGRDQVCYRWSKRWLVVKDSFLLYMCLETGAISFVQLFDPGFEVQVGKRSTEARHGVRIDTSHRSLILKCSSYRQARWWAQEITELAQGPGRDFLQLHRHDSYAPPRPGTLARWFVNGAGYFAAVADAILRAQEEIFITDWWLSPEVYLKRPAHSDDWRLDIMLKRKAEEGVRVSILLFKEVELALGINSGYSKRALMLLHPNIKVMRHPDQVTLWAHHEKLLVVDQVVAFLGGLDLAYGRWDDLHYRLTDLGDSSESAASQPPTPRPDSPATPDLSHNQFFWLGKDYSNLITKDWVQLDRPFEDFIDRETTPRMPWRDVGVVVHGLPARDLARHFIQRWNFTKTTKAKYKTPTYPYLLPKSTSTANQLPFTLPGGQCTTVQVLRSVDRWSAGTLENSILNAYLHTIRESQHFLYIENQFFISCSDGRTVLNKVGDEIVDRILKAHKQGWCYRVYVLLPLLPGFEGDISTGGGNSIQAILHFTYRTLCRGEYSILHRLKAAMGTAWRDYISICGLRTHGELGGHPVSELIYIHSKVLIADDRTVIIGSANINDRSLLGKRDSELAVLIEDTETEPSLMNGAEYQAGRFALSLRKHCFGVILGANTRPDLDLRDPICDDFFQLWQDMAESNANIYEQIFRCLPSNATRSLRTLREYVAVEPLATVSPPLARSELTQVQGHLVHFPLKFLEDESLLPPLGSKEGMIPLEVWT
# Phospholipase D1 = biological target: T5, Phospholipase D1 (Homo sapiens, UniProt Q13393); assay: PLD1 inhibitor potency in cells, dose response (AID 602151); assay type: functional;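 further: cellular PLD1 assay in Calu-1 cells stimulated with PMA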
# T5 sequence (Q13393 whole entry): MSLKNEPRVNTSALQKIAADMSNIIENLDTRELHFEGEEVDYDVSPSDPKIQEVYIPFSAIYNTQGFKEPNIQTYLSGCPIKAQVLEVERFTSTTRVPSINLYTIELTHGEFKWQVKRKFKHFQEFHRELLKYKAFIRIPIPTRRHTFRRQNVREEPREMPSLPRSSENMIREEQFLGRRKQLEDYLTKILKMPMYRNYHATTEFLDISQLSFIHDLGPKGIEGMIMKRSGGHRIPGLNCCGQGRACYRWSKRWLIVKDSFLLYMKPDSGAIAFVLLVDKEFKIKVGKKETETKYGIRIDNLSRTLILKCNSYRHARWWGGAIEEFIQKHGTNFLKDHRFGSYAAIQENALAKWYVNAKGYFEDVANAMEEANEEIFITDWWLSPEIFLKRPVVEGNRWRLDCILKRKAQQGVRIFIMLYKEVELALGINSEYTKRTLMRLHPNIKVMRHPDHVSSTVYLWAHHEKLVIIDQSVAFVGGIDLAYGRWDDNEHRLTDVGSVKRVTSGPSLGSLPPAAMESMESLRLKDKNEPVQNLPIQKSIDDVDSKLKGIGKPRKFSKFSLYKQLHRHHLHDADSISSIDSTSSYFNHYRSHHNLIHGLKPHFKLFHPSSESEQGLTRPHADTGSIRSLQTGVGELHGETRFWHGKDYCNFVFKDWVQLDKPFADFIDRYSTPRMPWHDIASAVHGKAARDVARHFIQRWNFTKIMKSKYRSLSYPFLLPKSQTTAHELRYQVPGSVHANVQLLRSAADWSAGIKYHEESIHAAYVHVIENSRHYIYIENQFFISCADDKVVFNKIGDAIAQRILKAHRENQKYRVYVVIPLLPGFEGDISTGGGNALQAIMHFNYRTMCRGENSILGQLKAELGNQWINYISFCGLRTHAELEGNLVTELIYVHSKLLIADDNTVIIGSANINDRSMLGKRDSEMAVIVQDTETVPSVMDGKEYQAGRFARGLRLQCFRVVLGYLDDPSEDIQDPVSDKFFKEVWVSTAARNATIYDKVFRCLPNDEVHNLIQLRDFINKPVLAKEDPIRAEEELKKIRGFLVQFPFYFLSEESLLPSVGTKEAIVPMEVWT
# [13] = T. cruzi growth inhibition in host cells, dose response, cell-based, plate reader, dry powder, set 2 (AID 652275); assay type: functional
smiles,measurement,setting,value
CCNCCNc1ccc([N+](=O)[O-])c2cccnc12,AC50,[1],29.7 µM (active)
same,AC50,[2],13.6 µM (active)
CCCCC(=O)Nc1ccc(C(=O)N2CCCC(C(=O)OCC)C2)cc1 (stereo not given),EC50,[3],5.72 µM (active)
COc1ccc(C2/C=C\CN(Cc3ccc(N(C)C)cc3)CC(=O)N2Cc2ccc(F)cc2)cc1 (stereo not given),EC50,[3],4.34 µM (active)
CCCCOc1cccc(C(=O)Nc2ccc(NC(=O)c3ccco3)cc2)c1,EC50,[3],0.222 µM (active)
COc1ccc(C2C(C(=O)c3ccco3)=C(O)C(=O)N2c2nnc(C)s2)cc1 (stereo not given),EC50,[4],19.8 µM (inactive)
same,EC50,[5],18.7 µM (not active)
same,EC50,[6],216 µM (active)
same,EC50,[7],> 79.4 µM (not active)
same,EC50,[8],109 µM (active)
COCCn1c(=S)[nH]c2cc(C(=O)N3CCN(Cc4ccc5c(c4)OCO5)CC3)ccc2c1=O,AC50,[9],44.6 µM (active)
same,AC50,[10],60.2 µM (active)
same,AC50,[11],29.3 µM (active)
CCN1C(=O)[C@H]2[C@@H](c3ccc(C)cc3)N3C(=O)N(c4ccc(C(F)(F)F)cc4)C(=O)[C@@]3(CC(C)C)[C@H]2C1=O,AC50,[9],4.99 µM (active)
same,AC50,[12],3.63 µM (active)
same,AC50,[10],2.35 µM (active)
same,AC50,[11],2 µM (active)
C[C@@H](CN1CCC2(CC1)C(=O)NCN2c1ccc(F)c(F)c1)NC(=O)c1cnc2ccccc2c1,IC50,Phospholipase D2,0.076 µM (active)
same,IC50,Phospholipase D1,0.016 µM (active)
O=C(NCCN1CCC(n2c(=O)[nH]c3cc(I)ccc32)CC1)C1CC1c1ccccc1 (stereo not given),IC50,Phospholipase D2,0.345 µM (active)
same,IC50,Phospholipase D1,0.009 µM (active)
C[C@@H](CN1CCC(n2c(=O)[nH]c3ccccc32)CC1)NC(=O)c1cccnc1,IC50,Phospholipase D2,14 µM (active)
same,IC50,Phospholipase D1,0.085 µM (active)
CC(C)[C@@H](CN1CCC2(CC1)C(=O)NCN2c1ccccc1)NC(=O)c1cc2ccccc2[nH]1,IC50,Phospholipase D2,0.029 µM (active)
same,IC50,Phospholipase D1,0.007 µM (active)
COc1cc2c(c(OC)c1OC)[C@@]1(c3ccccc3)CCCC[C@H]1[C@@H]2NC(=O)C(F)(F)F,AC50,[12],7.65 µM (active)
same,AC50,[10],5.7 µM (active)
same,AC50,[11],6.21 µM (active)
CC(C)(C)[S+]([O-])N1Cc2cc(C(=O)NCc3ccc4c(c3)OCO4)nc(-c3cccc(-c4cccc(F)c4)c3)c2[C@@H]1CCO (stereo not given in full),AC50,[13],1.74 µM (active)
CN(C)C(=O)c1cccc(-c2ccc([C@@H]3[C@H](CO)N4CCCCN(C(=O)C5CCC5)C[C@@H]34)cc2)c1,AC50,[13],4.83 µM (active)
